Patent publication US10603357B2, “Therapeutic TREM-1 peptides” (Universite de Lorraine, priority 2004, dated 2020)
Marks after values point to notes of the source that are not given here.

Experiments:
BALB/c mice = test: LPS-induced endotoxaemia, survival of mice (Example 1); assay type: in vivo, mouse; details: for animals alive 7 days after LPS injection: 200 μl of 300 μM peptide i.p. 1 hour before 200 μg LPS i.p., 10 mice per group (FIG. 2, 3); for protection (survival) from LPS: 4 hours after LPS (FIG. 4)
Description: BALB/c mice (10 per group) were injected intraperitoneally with 200 μg LPS. The TREM-1 peptides P1, P2, P3, or P5 (200 μl of a 300 μM solution per mouse) were injected intraperitoneally 1 hour before LPS. Viability of mice was monitored twice a day for 7 days. Statistical analysis was performed by Logrank test. Data from control mice represent cumulative survival curves from two independent experiments performed under identical conditions.
BALB/c mice (10 per group) were injected intraperitoneally with 200 μg LPS. TREM-1 peptide P1, 200 μl of a 300 μM solution per mouse was injected intraperitoneally 1 hour before or 4 hours after LPS. Viability of mice was monitored twice a day for 7 days. Statistical analysis was performed with the Logrank test. Data from control mice represent cumulative survival curves from two independent experiments performed under identical conditions
BALB/c mice (10 per group) were injected intraperitoneally with 200 μg LPS. P1 peptide, 200 μl of a 150, 300 and 600 μM solution per mouse (dots) or P3, 200 μl of a 600 μM solution per mouse (filled squares) were injected intraperitoneally 4 hours after LPS. Viability of mice was monitored twice a day for 7 days. Statistical analysis was performed with the Logrank test
In the experiments of this example, the peptides were administered in a volume of 200 μl of the solution molarity indicated. To assess the ability of TREM1-peptides to protect mice from LPS-induced endotoxaemia, the Inventors administered peptides P1, P2, P3 and P5 (300 μM) 1 hour before a lethal dose of lipopolysaccharide (LPS) (FIG. 2). Lethality was monitored over time and compared with animals that had received control injections of vehicle alone. P5 injection confers maximal protection, with 90% of the animals still alive 7 days after LPS injection, as compared with 10% of control mice (p<0.001). 60% of the P1-treated mice and 50% of the P2 treated mice survived endotoxaemia as compared with 10% of control mice (p<0.01 and p<0.05 respectively).
In order to investigate whether TREM-1 peptide treatment could be delayed until after the administration of LPS, the Inventors injected the peptides at 4 hours after LPS injection. […] 80% of the mice injected with P1 4 hours after LPS survived endotoxaemia compared to 60% of mice treated 1 h before LPS and 10% of mice treated with vehicle alone (p<0.001 and p<0.01 respectively). Thus, P1 is effective even when injected after the outbreak of endotoxaemia. […] P1 administration conferred maximal protection (80%) when administered at 600 μM (p<0.01) and the level of protection dropped to 50% at 300 μM (p<0.05) and further down to 30% at 150 μM as compared to 20% of control mice, indicating a dose dependent effect of P1 (FIG. 4). The Inventors then investigated whether P1 protects against septic shock in the “CLP” model (Cecal Ligation and Puncture is a widely used experimental model of sepsis). Mice treated with two doses of P1 at 5 and 24 hours after CLP were protected from death as compared to control treated mice (p=0.0791) although the difference was not statistically significant. 40% of the mice injected with P1 at 5 days after CLP survived compared to 5% of mice treated with P3 peptide.

rats = test: LPS-induced endotoxinemia in rats, haemodynamic and biological measurements; assay type: in vivo, rat; details: for effect on plasma IL-1β release: LPS 15 mg/kg (FIG. 13B); for Nitrite/nitrate concentrations after LPS administration: LPS 15 mg/kg (FIG. 14); for Aortic blood flow / Heart Rate / Lactate / MAP / Mesenteric blood flow / pH (arterial): LPS-induced endotoxinemia
Description: Animals were randomly grouped (n=10-20) and treated with Escherichia coli LPS (0111:B4, Sigma-Aldrich, Lyon, France) i.p. in combination with the TREM-1 or scrambled peptides.
Immediately after LPS administration as well as 16 hours after CLP, arterial BP (systolic, diastolic, and mean), heart rate, abdominal aortic blood flow, and mesenteric blood flow were recorded using a procedure described elsewhere (see Mansart, A. et al. Shock 19:38-44 (2003)). Briefly, the left carotid artery and the left jugular vein were cannulated with PE-50 tubing. Arterial BP was continuously monitored by a pressure transducer and an amplifier-recorder system (IOX EMKA Technologies, Paris, France). Perivascular probes (Transonic Systems, Ithaca, N.Y.) wrapped up the upper abdominal aorta and mesenteric artery, allowed to monitor their respective flows by means of a flowmeter (Transonic Systems). After the last measurement (4th hour during LPS experiments and 24th hour after CLP), animals were sacrificed by an overdose of sodium thiopental i.v.
Blood was sequentially withdrawn from the left carotid artery. Arterial lactate concentrations and blood gases analyses were performed on an automatic blood gas analyser (ABL 735, Radiometer, Copenhagen, Denmark). Concentrations of TNF-α and IL-1β in the plasma were determined by an ELISA test (Biosource, Nivelles, Belgium) according to the recommendations of the manufacturer. Plasmatic concentrations of nitrates/nitrites were measured using the Griess reaction (R&D Systems, Abingdon, UK).

Row | Sequence | animals alive 7 days after LPS injection (BALB/c mice) [%] | effect on plasma IL-1β release (rats) | Nitrite/nitrate concentrations after LPS administration (rats) | Aortic blood flow (rats; H0) [mL/min] | Heart Rate (rats; H0) [bpm] | Lactate (rats; H0) [mmol/L] | MAP (rats; H0) [mmHg] | Mesenteric blood flow (rats; H0) [mL/min] | pH (arterial) (rats; H0) | Aortic blood flow (rats; H1) | Heart Rate (rats; H1) [bpm] | Lactate (rats; H1) [mmol/L] | MAP (rats; H1) [mmHg] | Mesenteric blood flow (rats; H1) [mL/min] | pH (arterial) (rats; H1) | Aortic blood flow (rats; H2) | Heart Rate (rats; H2) [bpm] | Lactate (rats; H2) [mmol/L] | MAP (rats; H2) [mmHg] | Mesenteric blood flow (rats; H2) [mL/min] | other results
1 | LQVTDSGLYRCVIYHPP [P5] | 90 | strongly reduced | remained stable | 48 ± 9 | 474 ± 49 | 3.4 ± 1.5 | 115 ± 16 | 12.8 ± 6.4 | 7.33 ± 0.04 | 32 ± 8 mL/min | 498 ± 26 | 5.4 ± 1.4 | 99 ± 22 | 11.4 ± 2.7 | 7.28 ± 0.06 | 23 ± 4 ^b mL/min | 510 ± 42 | 5.5 ± 1.6 | 101 ± 18 | 9.2 ± 1.9 | attenuation of plasma TNF-α production (rats; LPS 15 mg/kg (FIG. 13A)): ~30%; pH (arterial) (rats; H2): 7.32 ± 0.07; Aortic blood flow (rats; H3): 20 ± 7 ^b mL/min; Heart Rate (rats; H3): 517 ± 62 bpm; Lactate (rats; H3): 5.9 ± 1.7 ^b mmol/L; MAP (rats; H3): 93 ± 21 ^b mmHg; Mesenteric blood flow (rats; H3): 6.0 ± 0.8 mL/min; pH (arterial) (rats; H3): 7.29 ± 0.11; Aortic blood flow (rats; H4): 15 ± 6 ^b mL/min; Heart Rate (rats; H4): 510 ± 26 bpm; Lactate (rats; H4): 7.4 ± 1.8 ^b mmol/L; MAP (rats; H4): 89 ± 10 ^b mmHg; Mesenteric blood flow (rats; H4): 5.0 ± 1.0 mL/min; pH (arterial) (rats; H4): 7.28 ± 0.12 ^b
2 | LVVTQRPFTRPSEVHMGKFTLKH (listed as Mus musculus) [P1] | 60 | delayed the IL-1β peak until the third hour after LPS injection, but without attenuation | increased rapidly | 49 ± 11 | 464 ± 25 | 2.7 ± 0.1 | 116 ± 10 | 12.0 ± 3.7 | 7.32 ± 0.04 | 39 ± 12 ^a mL/min | 492 ± 26 | 4.9 ± 1.1 | 119 ± 14 | 10.5 ± 1.7 | 7.29 ± 0.04 | 26 ± 14 ^a mL/min | 492 ± 26 | 5.0 ± 0.9 | 113 ± 21 | 7.7 ± 2.7 | protection (survival) from LPS (BALB/c mice; 200 μl of 150 μM): 30%; protection (survival) from LPS (BALB/c mice; 200 μl of 300 μM): 50%; protection (survival) from LPS (BALB/c mice; 200 μl of 600 μM): 80%; late death over one week (BALB/c mice; delayed treatment after LPS): No late death occurred; mice surviving endotoxaemia (BALB/c mice; peptide 300 μM injected 4 hours after LPS (FIG. 3)): 80%; effect on LPS-induced plasma TNF-α production (rats; LPS 15 mg/kg (FIG. 13A)): no effect; pH (arterial) (rats; H2): 7.30 ± 0.01; Aortic blood flow (rats; H3): 22 ± 8 ^a mL/min; Heart Rate (rats; H3): 480 ± 30 bpm; Lactate (rats; H3): 5.7 ± 0.7 ^a mmol/L; MAP (rats; H3): 97 ± 29 ^a mmHg; Mesenteric blood flow (rats; H3): 5.0 ± 1.0 mL/min; pH (arterial) (rats; H3): 7.26 ± 0.06; Aortic blood flow (rats; H4): 16 ± 6 ^a mL/min; Heart Rate (rats; H4): 480 ± 20 bpm; Lactate (rats; H4): 7.9 ± 1.7 ^a mmol/L; MAP (rats; H4): 92 ± 7 ^a mmHg; Mesenteric blood flow (rats; H4): 4.8 ± 0.9 mL/min; pH (arterial) (rats; H4): 7.26 ± 0.08 ^a
